# Measurements: patent publication US10544150B2, “NK-3 receptor selective antagonist compounds, pharmaceutical composition and methods for use in NK-3 receptors mediated disorders” (Ogeda SA, priority 2010, dated 2020)
# Target: human NK-3 receptor (Homo sapiens (Human), UniProt P29371)
# Assay: 3H-SB222200 binding competition assay with human NK-3 receptor
# Details: 3H-SB222200 displacement, CHO cell membranes expressing human NK3 receptor; read-out: Ki range
# Description: The affinity of compounds of the invention for the tachykinin receptors was determined by measuring the ability of the compounds of the invention to displace a radiolabeled ligand from its specifics binding site.
# ^3H-SB222200 Binding Competition Assay with Human NK-3 Receptor
# The ability of the compounds of the invention to inhibit the binding of the NK-3 receptor selective antagonist SB222200 was assessed by an in vitro radioligand binding assay. Membranes were prepared from Chinese hamster ovary recombinant cells which express the human NK3 receptor. The membranes were incubated with 5 nM ^3H-SB222200_(ARC) in a HEPES 25 mM/NaCl 0.1M/CaCl2 1 mM/MgCl2 5 Mm/BSA 0.5%/Saponin 10 μg/ml buffer at pH 7.4 and various concentrations of the compounds of the invention. The amount of tritiated SB222200 bound to the receptor was determined after filtration by the quantification of membrane associated radioactivity using the TopCount-NXT reader (Packard). […] In Table 3 biological results obtained using the ^3H-SB222200 binding competition assay with compounds of the invention are set out in tabulated form. In this table the calculated Ki is given. The Ki value obtained (in accordance with the protocol set forth above) is represented as follows: “+++” means Ki<500 nM; “++” means 500 nM≤Ki≤1 μM; “+” means 1 μM<Ki≤5 μM; “#” means Ki>5 μM.
# Sequence of human NK-3 receptor (P29371 whole entry): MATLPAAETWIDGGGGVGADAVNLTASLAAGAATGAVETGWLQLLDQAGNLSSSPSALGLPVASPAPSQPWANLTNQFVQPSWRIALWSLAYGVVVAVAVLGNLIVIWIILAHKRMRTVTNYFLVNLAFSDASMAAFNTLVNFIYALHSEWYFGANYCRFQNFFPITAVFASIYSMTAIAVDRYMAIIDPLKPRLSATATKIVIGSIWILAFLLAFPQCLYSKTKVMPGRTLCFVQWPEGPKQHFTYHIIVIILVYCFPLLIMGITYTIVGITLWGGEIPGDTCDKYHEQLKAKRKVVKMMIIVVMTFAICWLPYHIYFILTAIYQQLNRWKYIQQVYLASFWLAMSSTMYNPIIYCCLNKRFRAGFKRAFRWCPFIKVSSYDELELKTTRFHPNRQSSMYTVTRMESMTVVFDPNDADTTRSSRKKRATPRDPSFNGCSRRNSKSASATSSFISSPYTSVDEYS
row,Compound,Ki
1,"O=C(c1ccc(F)cc1)N1CCn2c(nnc2-c2csc(-c3ccncc3)n2)C1 [Compound 218, (4-fluorophenyl)(3-(2-(pyridin-4-yl)thiazol-4-yl)-5,6-dihydro-[1,2,4]triazolo[4,3-a]pyrazin-7(8H)-yl)methanone]",1000 to 5000 nM
2,"CC1c2nnc(-c3csc(-c4ccc(F)cc4)n3)n2CCN1C(=O)c1ccc(-c2cccs2)cc1 (centres unmarked) [Compound 78, (3-(2-(4-fluorophenyl)thiazol-4-yl)-8-methyl-5,6-dihydro-[1,2,4]triazolo[4,3-a]pyrazin-7(8H)-yl)(4-(thiophen-2-yl)phenyl)methanone]",< 500 nM
3,"CC1c2nnc(-c3nc(-c4ccc(F)cc4)no3)n2CCN1C(=O)c1ccc(-c2cccs2)cc1 (centres unmarked) [Compound 209, (3-(3-(4-fluorophenyl)-1,2,4-oxadiazol-5-yl)-8-methyl-5,6-dihydro-[1,2,4]triazolo[4,3-a]pyrazin-7(8H)-yl)(4-(thiophen-2-yl)phenyl)methanone]",< 500 nM
4,"CC(C)C1c2nnc(-c3csc(-c4ccccc4)n3)n2CCN1C(=O)c1ccc(F)cc1 (centres unmarked) [Compound 43, (4-fluorophenyl)(8-isopropyl-3-(2-phenylthiazol-4-yl)-5,6-dihydro-[1,2,4]triazolo[4,3-a]pyrazin-7(8H)-yl)methanone]",1000 to 5000 nM
5,"O=C(c1ccc(-c2ccc(F)cc2)cc1)N1CCn2c(nnc2-c2nc(-c3ccccc3)no2)C1 [Compound 223, (4′-fluoro-[1,1′-biphenyl]-4-yl)(3-(3-phenyl-1,2,4-oxadiazol-5-yl)-5,6-dihydro-[1,2,4]triazolo[4,3-a]pyrazin-7(8H)-yl)methanone]",< 500 nM
6,"O=C(c1ccc(F)cc1)N1CCn2c(nnc2-c2csc(N3CCCCC3)n2)C1 [Compound 33, (4-fluorophenyl)(3-(2-(piperidin-1-yl)thiazol-4-yl)-5,6-dihydro-[1,2,4]triazolo[4,3-a]pyrazin-7(8H)-yl)methanone]",< 500 nM
7,"O=C(c1ccc(F)cc1)N1CCn2c(-c3csc(-c4ccccc4)n3)nnc2C1c1ccc(F)cc1 (centres unmarked) [Compound 41, (4-fluorophenyl)(8-(4-fluorophenyl)-3-(2-phenylthiazol-4-yl)-5,6-dihydro-[1,2,4]triazolo[4,3-a]pyrazin-7(8H)-yl)methanone]",< 500 nM
8,"CN1CCN(c2nc(-c3nnc4n3CCN(C(=O)c3ccc(-c5cccs5)cc3)C4)cs2)CC1 [Compound 250, (3-(2-(4-methylpiperazin-1-yl)thiazol-4-yl)-5,6-dihydro-[1,2,4]triazolo[4,3-a]pyrazin-7(8H)-yl)(4-(thiophen-2-yl)phenyl)methanone]",500 to 1000 nM
9,"CC1(C)CCN(c2nc(-c3nnc4n3CCN(C(=O)c3ccc(F)cc3)C4)cs2)CC1 [Compound 276, (3-(2-(4,4-dimethylpiperidin-1-yl)thiazol-4-yl)-5,6-dihydro-[1,2,4]triazolo[4,3-a]pyrazin-7(8H)-yl)(4-fluorophenyl)methanone]",> 5000 nM
10,"COCCC1CN(c2nc(-c3nnc4n3CCN(C(=O)c3ccc(-c5cccs5)cc3)C4)cs2)CCO1 (centres unmarked) [Compound 257, (3-(2-(2-(2-methoxyethyl)morpholino)thiazol-4-yl)-5,6-dihydro-[1,2,4]triazolo[4,3-a]pyrazin-7(8H)-yl)(4-(thiophen-2-yl)phenyl)methanone]",< 500 nM
11,"CS(=O)(=O)Nc1ccc(-c2nc(-c3nnc4n3CCN(C(=O)c3ccc(-c5cccs5)cc3)C4)cs2)cc1 [Compound 283, N-(4-(4-(7-(4-(thiophen-2-yl)benzoyl)-5,6,7,8-tetrahydro-[1,2,4]triazolo[4,3-a]pyrazin-3-yl)thiazol-2-yl)phenyl)methanesulfonamide]",500 to 1000 nM
12,"O=C(c1ccc(-c2cccs2)cc1)N1CCn2c(nnc2-c2cc(-c3ccccc3)n[nH]2)C1 [Compound 267, (3-(3-phenyl-1H-pyrazol-5-yl)-5,6-dihydro-[1,2,4]triazolo[4,3-a]pyrazin-7(8H)-yl)(4-(thiophen-2-yl)phenyl)methanone]",< 500 nM
13,"O=C(c1ccc(-c2ccccc2)cc1)N1CCn2c(nnc2-c2csc(-c3ccccc3F)n2)C1 [Compound 182, [1,1′-biphenyl]-4-yl(3-(2-(2-fluorophenyl)thiazol-4-yl)-5,6-dihydro-[1,2,4]triazolo[4,3-a]pyrazin-7(8H)-yl)methanone]",< 500 nM
14,"O=C(c1ccc(-c2ccsc2)cc1)N1CCn2c(nnc2-c2csc(-c3ccccc3)n2)C1 [Compound 63, (3-(2-phenylthiazol-4-yl)-5,6-dihydro-[1,2,4]triazolo[4,3-a]pyrazin-7(8H)-yl)(4-(thiophen-3-yl)phenyl)methanone]",< 500 nM
15,"O=C(c1ccc(-c2ccc(F)cc2)cc1)N1CCn2c(nnc2-c2ccccn2)C1 [Compound 16, (4′-fluoro-[1,1′-biphenyl]-4-yl)(3-(pyridin-2-yl)-5,6-dihydro-[1,2,4]triazolo[4,3-a]pyrazin-7(8H)-yl)methanone]",1000 to 5000 nM
16,"O=C(c1ccc(-c2cccs2)cc1)N1CCn2c(nnc2-c2csc(N3CCOCC3)n2)C1 [Compound 55, (3-(2-morpholinothiazol-4-yl)-5,6-dihydro-[1,2,4]triazolo[4,3-a]pyrazin-7(8H)-yl)(4-(thiophen-2-yl)phenyl)methanone]",< 500 nM
17,"CC1c2nnc(-c3csc(-c4ccc(F)cc4)n3)n2CCN1C(=O)c1ccc(F)cc1 (centres unmarked) [Compound 70, (4-fluorophenyl)(3-(2-(4-fluorophenyl)thiazol-4-yl)-8-methyl-5,6-dihydro-[1,2,4]triazolo[4,3-a]pyrazin-7(8H)-yl)methanone]",< 500 nM
18,"COCCn1nc(-c2ccccc2)cc1-c1nnc2n1CCN(C(=O)c1ccc(F)cc1)C2 [Compound 255, (4-fluorophenyl)(3-(1-(2-methoxyethyl)-3-phenyl-1H-pyrazol-5-yl)-5,6-dihydro-[1,2,4]triazolo[4,3-a]pyrazin-7(8H)-yl)methanone]",500 to 1000 nM
19,"C[C@@H]1c2nnc(-c3csc(N4CCOCC4)n3)n2CCN1C(=O)c1ccc(-c2ccccc2)cc1 [Compound 118, (R)-[1,1′-biphenyl]-4-yl(8-methyl-3-(2-morpholinothiazol-4-yl)-5,6-dihydro-[1,2,4]triazolo[4,3-a]pyrazin-7(8H)-yl)methanone]",< 500 nM
20,"O=C(c1cc(-c2ccc(Cl)c(Cl)c2)n[nH]1)N1CCn2c(nnc2-c2ccccn2)C1 [Compound 4, (3-(3,4-dichlorophenyl)-1H-pyrazol-5-yl)(3-(pyridin-2-yl)-5,6-dihydro-[1,2,4]triazolo[4,3-a]pyrazin-7(8H)-yl)methanone]",1000 to 5000 nM
21,"CC1c2nnc(-c3csc(-c4ccc(F)cc4)n3)n2CCN1C(=O)c1cc(F)c(F)c(F)c1 (centres unmarked) [Compound 113, (3-(2-(4-fluorophenyl)thiazol-4-yl)-8-methyl-5,6-dihydro-[1,2,4]triazolo[4,3-a]pyrazin-7(8H)-yl)(3,4,5-trifluorophenyl)methanone]",< 500 nM
22,"O=C(c1ccc(-c2ccccc2)cc1)N1CCn2c(nnc2-c2csc(Cn3cnc(Cl)c3Cl)n2)C1 [Compound 186, [1,1′-biphenyl]-4-yl(3-(2-((4,5-dichloro-1H-imidazol-1-yl)methyl)thiazol-4-yl)-5,6-dihydro-[1,2,4]triazolo[4,3-a]pyrazin-7(8H)-yl)methanone]",1000 to 5000 nM
23,"CC1(C)CCN(c2nc(-c3nnc4n3CCN(C(=O)c3ccc(-c5cccs5)cc3)C4)cs2)CC1 [Compound 274, (3-(2-(4,4-dimethylpiperidin-1-yl)thiazol-4-yl)-5,6-dihydro-[1,2,4]triazolo[4,3-a]pyrazin-7(8H)-yl)(4-(thiophen-2-yl)phenyl)methanone]",500 to 1000 nM
24,"O=C(c1ccc(-c2ccccc2)cc1)N1CCn2c(nnc2-c2csc(N3CCOCC3)n2)C1 [Compound 20, [1,1′-biphenyl]-4-yl(3-(2-morpholinothiazol-4-yl)-5,6-dihydro-[1,2,4]triazolo[4,3-a]pyrazin-7(8H)-yl)methanone]",< 500 nM
25,"O=C(c1ccc(-c2ccc(F)cc2)cc1)N1CCn2c(nnc2-c2csc(-c3ccccc3F)n2)C1 [Compound 183, (4′-fluoro-[1,1′-biphenyl]-4-yl)(3-(2-(2-fluorophenyl)thiazol-4-yl)-5,6-dihydro-[1,2,4]triazolo[4,3-a]pyrazin-7(8H)-yl)methanone]",< 500 nM
26,"O=C(c1ccc(F)cc1)N1CCn2c(nnc2-c2csc(N3CCC(F)(F)CC3)n2)C1 [Compound 258, (3-(2-(4,4-difluoropiperidin-1-yl)thiazol-4-yl)-5,6-dihydro-[1,2,4]triazolo[4,3-a]pyrazin-7(8H)-yl)(4-fluorophenyl)methanone]",< 500 nM
27,"CC1c2nnc(-c3csc(N4CCOCC4)n3)n2CCN1C(=O)c1ccc(-c2ccc(F)cc2)cc1 (centres unmarked) [Compound 53, (4′-fluoro-[1,1′-biphenyl]-4-yl)(8-methyl-3-(2-morpholinothiazol-4-yl)-5,6-dihydro-[1,2,4]triazolo[4,3-a]pyrazin-7(8H)-yl)methanone]",< 500 nM
28,"O=C(c1ccc(-c2cccs2)cc1)N1CCn2c(nnc2-c2csc(-c3ccccc3OCCO)n2)C1 [Compound 281, (3-(2-(2-(2-hydroxyethoxy)phenyl)thiazol-4-yl)-5,6-dihydro-[1,2,4]triazolo[4,3-a]pyrazin-7(8H)-yl)(4-(thiophen-2-yl)phenyl)methanone]",< 500 nM
29,"O=C(c1ccc(-c2cccs2)cc1)N1CCn2c(nnc2-c2csc(-c3ccc(F)cc3)n2)C1 [Compound 73, (3-(2-(4-fluorophenyl)thiazol-4-yl)-5,6-dihydro-[1,2,4]triazolo[4,3-a]pyrazin-7(8H)-yl)(4-(thiophen-2-yl)phenyl)methanone]",< 500 nM
